In the NIST ThermoML archive (doi:10.1021/je900632q):

Details: 101.3 kPa, Liquid

CCCCn1cc[n+](C)c1.N#CN=C=[N-] [1-butyl-3-methylimidazolium dicyanamide]
Details	mass density [kg/m3]	viscosity [mPa·s]
278.15 K	1075.8	82.07
283.15 K	1072.6	62.54
288.15 K	1069.4	48.93
293.15 K	1066.2	39.14
298.15 K	1063.1	31.8
303.15 K	1059.9	26.29
308.15 K	1056.8	21.79
313.15 K	1053.7	18.5
318.15 K	1050.6	15.88
323.15 K	1047.5	13.78
328.15 K	1044.4	12.06
333.15 K	1041.3	10.65
338.15 K	1038.2	9.475
343.15 K	1035.1	8.485
348.15 K	1032.1	7.643
353.15 K	1029	6.923
358.15 K	1025.8	6.304
363.15 K	1022.7	5.77
